In US11549123B2, “Plant EPSP synthases and methods of use” (PIONEER HI-BRED INTERNATIONAL, INC., priority 2015, dated 2023):

Tests used:
[1] = test system: Helianthus annuus EPSPS with 868-H6 mutations, SEQ ID NO:10; test: EPSPS substrate saturation kinetics, sunflower H6; type: biochemical; details: PEP
Method: (§1) EPSPS activity was determined by quantifying the phosphate generated from the EPSPS reaction. Release of inorganic phosphate was coupled to reaction with 2-amino-6-mercapto-7-methylpurine ribonucleoside, catalyzed by purine-nucleoside phosphorylase (M R Webb, Proc. Natl. Acad. Sci. 89:4884-4887, 1992). The absorbance change that occurs was monitored at 360 nm, where the extinction is 11,200 M^−1 cm^−1, with a Spectramax plate reader (Molecular Devices). To determine kinetic parameters, the varied substrate was present at seven concentrations (the eighth being the blank, containing no substrate) ranging from 4 to 400 uM and the unvaried substrate present at saturation. […] Reactions were monitored with a Spectramax plate reader. […] KI was then calculated from the following form of the Michaelis-Menten equation for competitive inhibition: KI=KM[I]/(KM app−KM) KM approximates the dissociation constant of the enzyme-substrate complex while kcat is the rate of conversion of substrate to product when the substrate concentration is saturating. kcat/KM is a widely accepted parameter for catalytic efficiency when substrate concentration is low (˜KM). […] The parameter kcat/KM×KI is used to quantify both catalytic efficiency and insensitivity and thus the overall fitness of the enzyme.
(§2) Native EPSPS amino acid sequences of rice (Oryza sativa) (SEQ ID NO:7), sorghum (Sorghum halepense) (SEQ ID NO:8), and sunflower (Helianthus annus) (SEQ ID NO:9) including the chloroplast transit peptide sequences were assembled and analyzed for mapping the corresponding amino acid mutations from the maize 868-H6. […]
(§3) ChloroP Prediction Server (Emanuelsson, O. et al. 1999. Protein Sci. 8(5):978-84) was used to approximate the amino terminus of the mature EPSPS proteins. […] The synthetic genes were cloned into a plasmid vector and expressed, purified and analyzed as described in Example 1.

[2] = target: Helianthus annuus EPSPS with 868-H6 mutations, SEQ ID NO:10 (Helianthus annuus, UniProt A0A251S0N3, A489G/D475G/E144Q/E375S/E464G/G175A/L171C/Q70R/R514Q/S352A/T434S/T72W/V156R/V281L/V511R); test: EPSPS substrate saturation kinetics, sunflower H6; type: biochemical
Method: as §1, §2, §3

Chain of Helianthus annuus EPSPS with 868-H6 mutations, SEQ ID NO:10 (Helianthus annuus, UniProt A0A251S0N3, A489G/D475G/E144Q/E375S/E464G/G175A/L171C/Q70R/R514Q/S352A/T434S/T72W/V156R/V281L/V511R) (A0A251S0N3 67-518 with the stated changes): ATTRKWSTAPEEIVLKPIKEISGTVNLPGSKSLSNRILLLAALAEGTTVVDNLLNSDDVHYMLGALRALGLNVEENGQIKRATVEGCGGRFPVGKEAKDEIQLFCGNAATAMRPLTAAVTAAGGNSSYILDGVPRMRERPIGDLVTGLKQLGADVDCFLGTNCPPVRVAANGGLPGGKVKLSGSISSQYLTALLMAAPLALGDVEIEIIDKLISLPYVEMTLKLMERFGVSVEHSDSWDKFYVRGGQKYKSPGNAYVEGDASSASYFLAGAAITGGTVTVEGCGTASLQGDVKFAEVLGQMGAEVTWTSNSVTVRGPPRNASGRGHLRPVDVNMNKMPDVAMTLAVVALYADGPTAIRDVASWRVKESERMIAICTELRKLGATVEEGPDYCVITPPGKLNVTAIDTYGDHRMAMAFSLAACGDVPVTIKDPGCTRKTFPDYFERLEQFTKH

Structure (SMILES): C=C(OP(=O)(O)O)C(=O)O [PEP, phosphoenolpyruvate]
- kcat/KM relative to maize H6 [1]: 38%

Structure (SMILES): O=C(O)CNCP(=O)(O)O [glyphosate, N-phosphonomethylglycine]
- Ki [2]: 1580 µM
- (kcat/KM)*KI ([2]; PEP as substrate, glyphosate as inhibitor): 8960
